Experimental data from US20160046597A1, “RORC2 INHIBITORS AND METHODS OF USE THEREOF” (PFIZER INC., priority 2013, published 2016).

Molecular target: T1, RORC2 ligand binding domain (6-His-RORC2 LBD) (Homo sapiens, UniProt P51449)
T1 construct: made in house; host or cells: E. coli
T1 sequence (P51449 269-508 limits assumed): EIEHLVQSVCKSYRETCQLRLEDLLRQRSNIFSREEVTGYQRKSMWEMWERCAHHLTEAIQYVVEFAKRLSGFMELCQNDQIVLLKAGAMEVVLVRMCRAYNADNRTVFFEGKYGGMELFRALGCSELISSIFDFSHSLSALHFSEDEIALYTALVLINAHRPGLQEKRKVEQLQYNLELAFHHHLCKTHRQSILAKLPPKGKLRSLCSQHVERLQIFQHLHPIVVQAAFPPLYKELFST
Assay: Co-activator recruitment by TR-FRET (RORC2 FRET)
Type: biochemical
Conditions: 6.3 nM RORC2 LBD, 200 nM SRC1-2 coactivator peptide, 3 hours room temperature
Source text: The activity of compound of the invention can be determined by a co-activator recruitment by TR-FRET (time-resolved fluorescence resonance energy transfer) assay. […] Due to the long lasting fluorescence emission of Europium, the non-specific, short-lived fluorescence is time-resolved (TR) from the fluorescence of interest. Inhibitors of the interaction of receptor and coactivator peptide are detected by a decrease in TR-FRET signal.
Specifically, in one embodiment the aforementioned assay was performed as outlined below. The assay was carried out in black polystyrene, 384-well plates in a total assay volume of 50.5 μL. The assay buffer contained 50 mM TRIS-HCL pH 7.5, 1 mM NaCl, 2 mM MgCl2, 0.5 mg/mL bovine serum albumin, and 5 mM dithiothreitol.

IC50 | SMILES
199 nM | Cn1cc(C2CCN(C(=O)C3CCCC3)C2)c2cc(NC(=O)c3cccc(C#N)c3)ccc21 (stereo not drawn) [Example 79, 3-cyano-N-(3-(1-(cyclopentylcarbonyl)pyrrolidin-3-yl)-1-methyl-1H-indol-5-yl)benzamide]
335 nM | Cc1cnc(N2CCC(c3cn(C)c4ccc(NC(=O)c5cccc(C#N)c5)cc34)CC2)nc1 [Example 81, 3-cyano-N-(1-methyl-3-(1-(5-methylpyrimidin-2-yl)piperidin-4-yl)-1H-indol-5-yl)benzamide]
3960 nM | CC(C)c1cnc(N2CCC(c3cn(C)c4ccc(NC(=O)c5cccc(C#N)c5)cc34)CC2)nc1 [Example 82, 3-cyano-N-(3-[1-(5-isopropylpyrimidin-2-yl)piperidin-4-yl]-1-methyl-1H-indol-5-yl)benzamide]
23.4 nM | N#Cc1cccc(C(=O)Nc2ccc3onc(C4CCN(C(=O)C5CCCC5)CC4)c3c2)c1 [Example 83, 3-cyano-N-(3-(1-(cyclopentanecarbonyl)piperidin-4-yl)benzo[d]isoxazol-5-yl)benzamide]
> 20000 nM | N#Cc1cccc(C(=O)Nc2ccc3[nH]cc(C4CCN(S(=O)(=O)C5CCCC5)CC4)c3c2)c1 [Example 86, 3-cyano-N-(3-(1-(cyclopentylsulfonyl)piperidin-4-yl)-1H-indol-5-yl)benzamide]
> 20000 nM | N#Cc1cccc(C(=O)Nc2ccc3[nH]cc(C4CCN(CC5CCCC5)CC4)c3c2)c1 [Example 87, 3-cyano-N-(3-(1-(cyclopentylmethyl)piperidin-4-yl)-1H-indol-5-yl)benzamide]
9.8 nM | Cn1cc(C2CCN(C(=O)C[C@@H](O)C(F)(F)F)CC2)c2cc(NS(=O)(=O)c3ccc(F)cc3)ccc21 [Example 91, (R)-4-fluoro-N-(1-methyl-3-(1-(4,4,4-trifluoro-3-hydroxybutanoyl)piperidin-4-yl)-1H-indol-5-yl)benzenesulfonamide]
46.8 nM | Cc1c(NC(=O)c2cccc(C#N)c2)cnc2c1c(C1CCN(C(=O)C[C@@H](O)C(F)(F)F)CC1)cn2C [Example 95, (R)-3-Cyano-N-(1,4-dimethyl-3-(1-(4,4,4-trifluoro-3-hydroxybutanoyl)piperidin-4-yl)-1H-pyrrolo[2,3-b]pyridin-5-yl)benzamide]

The remaining lines, values behind:

SMILES | IC50
CC(C)c1cnc(N2CCC(c3cn(C)c4ccc(NC(=O)c5cccc(C#N)c5)cc34)CC2)nc1 [Example 80] | 259 nM
N#Cc1cccc(C(=O)Nc2ccc3cnn(C4CCN(C(=O)C5CCCC5)CC4)c3c2)c1 [Example 84, 3-cyano-N-(1-(1-(cyclopentanecarbonyl)piperidin-4-yl)-1H-indazol-6-yl)benzamide] | 214 nM
N#Cc1cccc(C(=O)Nc2ccc3[nH]cc(C4CCN(C(=O)NC5CCCC5)CC4)c3c2)c1 [Example 85, 4-(5-(3-cyanobenzamido)-1H-indol-3-yl)-N-cyclopentylpiperidine-1-carboxamide] | 859 nM
Cc1c(NC(=O)c2cccc(C#N)c2)ccc2c1c(C1CCN(C(=O)C[C@@H](O)C(F)(F)F)CC1)cn2C [Example 89, (R)-3-cyano-N-(1,4-dimethyl-3-(1-(4,4,4-trifluoro-3-hydroxybutanoyl)-piperidin-4-yl)-1H-indol-5-yl)benzamide] | 14.2 nM
Cn1cc(C2CCN(C(=O)C[C@@H](O)C(F)(F)F)CC2)c2cc(NC(=O)c3cccc(C#N)c3)ccc21 [Example 90, (R)-3-cyano-N-(1-methyl-3-(1-(4,4,4-trifluoro-3-hydroxybutanoyl)piperidin-4-yl)-1H-indol-5-yl)benzamide] | 13.9 nM
CC(C)C(=O)N1CCC(c2cn(C)c3ccc(NS(=O)(=O)c4ccc(F)cc4)cc23)CC1 [Example 92, 4-fluoro-N-(3-(1-isobutyrylpiperidin-4-yl)-1-methyl-1H-indol-5-yl)benzenesulfonamide] | 10.5 nM
CC1CCN(S(=O)(=O)Nc2ccc3c(c2)c(C2CCN(C(=O)C4CCCC4)CC2)cn3C)CC1 [Example 93, N-(3-(1-(cyclopentanecarbonyl)piperidin-4-yl)-1-methyl-1H-indol-5-yl)-4-methylpiperidine-1-sulfonamide] | 4.9 nM
